Laboratory results taken from US20100056983A1, “Treatment of cancer using photodynamic therapy” (Health Research, Inc., priority 2007, published 2010).
Marks after values point to notes of the source that are not given here.

Assays:
[1] = Duration of cutaneous photosensitivity after the photosensitizer; type: in vivo
From the text: Further, porfimer sodium is activated by light at 630 nm, which is suboptimal for tissue penetration. In addition, in tissues found in the upper respiratory system, side effects to normal tissue proximate to a tumor site has been greater than desirable, e.g. edema and normal tissue destruction, sometimes contributing to weeks for recovery and in some cases possibly causing permanent injury to normal proximate tissue. These drawbacks have led to a search for other photosensitizers without these limitations. This is especially important with respect to cancers that interfere with respiration, e.g. nose, mouth, pharynx, larynx and trachea. Temporary interference with digestive function can be tolerated since the body can cope without food input for a significant period of time and additionally, intravenous feeding can be readily done for temporary nutrition. The same case can of course not be made when respiration is involved since interference with respiration for even a short period is exceedingly distressful and in extreme cases can be fatal. In the case of cancers that involve the upper respiratory system it is therefore exceedingly important that damage to normal tissue be avoided. […]

[2] = tested on: squamous cell carcinoma on their larynx; assay: HPPH-PDT of a patient with squamous cell carcinoma on the larynx (Example 1); type: in vivo, human
Protocol: A person presented with a squamous cell carcinoma on their larynx. They refused surgery and radiation therapy and chose photodynamic therapy treatment using HPPH (2-[1-hexyloxyethyl]-2-devinyl pyropheophorbide a). They were infused over one hour with HPPH at 4 mg/m^2 (about 0.1 mg/kg). The following day they received non-thermal low power laser light treatment (150 mw/cm) at 665 nm in order to activate the photodynamic process. The light was delivered by a single quartz fiber treaded through a laryngoscope. They received 50 Joules/cm of the 665 nm light over 5.5 min.

[3] = Ratio of normal tissue levels of two photosensitizers in mice to tumor levels; type: in vivo; settings: 24 h post injection
From the text: A table showing relative concentrations in normal tissue and cancer tissue for various tissue types is shown below. Ratios are shown in the form of concentration in normal tissue/concentration in tumor tissue. Lower numbers thus represent less PDT agent (HPPH or porfimer sodium) in normal tissue relative to concentration in tumor tissue. Lower concentrations in normal tissue would be expected to result in less tissue damage at tumor concentrations sufficient to destroy tumor tissue.
Ratios were obtained by dividing actual amounts of the photosensitizer in a given tissue by the amount in the tumor.
Data at 24 h post injection were used since this is the time the mice are treated by light, generally from a laser at non-thermal dose rates.

[4] = tested on: squamous cell carcinoma of the floor of the mouth; assay: HPPH-PDT of a patient with squamous cell carcinoma of the floor of the mouth (Example 2); type: in vivo, human
Protocol: A person presented with a squamous cell carcinoma of the floor of the mouth. They chose to have photodynamic therapy with HPPH (2-[1-hexyloxyethyl]-2-devinyl propheophorbide—a) rather than surgery or radiation therapy. They were infused with 4 mg/m^2 HPPH. The following day they received non-thermal low power laser light (150 mw/cm) at 665 nm in order to activate photodynamic process. The light was delivered by a single quartz fiber threaded through a laryngoscope. They received 50 Joules/cm of the 665 nm light over 5.5 min. […] This was resolved when examined 30 days after treatment.

[5] = tested on: cancers that involve epithelial type tissue in the upper respiratory system; assay: Effective photosensitizer dose for PDT of cancers in the upper respiratory system; type: in vivo, human
Protocol: HPPH is effective at doses of only 0.08 to 0.13 mg/kg of body weight (3.5 mg/m2 of body surface area) versus a minimum of 2 mg/kg of body weight for porfimer sodium.

T1 recurrent lesions = settings: 26 patients, follow up of 6 to 51 months; cited from earlier work
[6] = patients after PDT; cited from earlier work
[7] = tested on: squamous cell carcinoma of the larynx; settings: cited from earlier work
[8] = tested on: high grade dysplasia / Barrett's mucosa; settings: 2 mg/kg, 630±5 nm, 100 to 250 joules/cm, cited from earlier work
[9] = 4 mg/m^2 HPPH, 50 Joules/cm at 665 nm
[10] = normalized to 5 mg/kg from data obtained at 27 mg/kg

For `CCCCCCOC(C)c1c(C)c2cc3nc(c4c5[nH]c(cc6nc(cc1[nH]2)C(C)=C6CC)c(C)c5C(=O)C4)[C@@H](CCC(=O)O)[C@@H]3C` (stereo partly shown) [HPPH, 2-(1-hexyloxyethyl)-2-devinyl pyropheophorbide-a], the “Duration of prolonged cutaneous photosensitivity” value ([1]; in vivo) was 1-2 weeks, the “Effect upon normal tissue” value [2, 9] was “No affect upon normal tissue” and the Skin photosensitivity [2, 9] was “no skin photosensitivity”. The Response to treatment ([2]; 4 mg/m^2 HPPH, 50 Joules/cm at 665 nm next day, second follow up at 3 months) was “complete response”, the “Adverse effects after treatment” value ([2]; completely resolved at first follow up 30 days after treatment) was “transient edema and hoarseness of voice” and the “Ratio concentration in normal tissue/concentration in tumor tissue: Adrenals” value [3] was 0.95. For the same molecule, the “Ratio concentration in normal tissue/concentration in tumor tissue: Brain” value [3] was 0.01, the “Ratio concentration in normal tissue/concentration in tumor tissue: Kidney” value [3] was 0.12 and the “Ratio concentration in normal tissue/concentration in tumor tissue: Liver” value [3] was 1.9. The “Ratio concentration in normal tissue/concentration in tumor tissue: Lung” value [3] was 2.7, the “Ratio concentration in normal tissue/concentration in tumor tissue: Muscle” value [3] was 0.095 and the “Ratio concentration in normal tissue/concentration in tumor tissue: Pancreas” value [3] was 0.11. The “Ratio concentration in normal tissue/concentration in tumor tissue: Spleen” value [3] was 0.14, the “Ratio concentration in normal tissue/concentration in tumor tissue: Urinary Bladder” value [3] was 0.11 and the Absolute Tumor Levels [3] was 3 µg/g. The “Effect upon normal tissue” value [4, 9] was “No effect upon normal tissue”, the Skin photosensitivity [4, 9] was “no skin photosensitivity” and the Response to treatment ([4]; 4 mg/m^2 HPPH, 50 Joules/cm at 665 nm next day, follow up at 6 months, confirmed by biopsy) was “complete response”. For the same molecule, the “Adverse effects after treatment” value ([4]; controlled with analgesics, resolved when examined 30 days after treatment) was “transient moderate pain at the treatment site” and the “Effective dose per body surface area” value ([5]; with light exposure at 665±5 nm) was 3.5 mg/m2 of body surface area.

For porfimer sodium, the “Duration of prolonged cutaneous photosensitivity” value ([1]; patients after PDT) is given as 4-6 weeks, the Complete response (T1 recurrent lesions) is given as 77% and the “Period of complete protection from sunlight and bright light because of skin photosensitization” value [6] is given as “up to 90 days”. For the same molecule, the “Ratio concentration in normal tissue/concentration in tumor tissue: Adrenals” value [3, 10] was 6.5^###, the “Ratio concentration in normal tissue/concentration in tumor tissue: Brain” value [3, 10] was 0.05^### and the “Ratio concentration in normal tissue/concentration in tumor tissue: Kidney” value [3] was 4. For the same molecule, the “Ratio concentration in normal tissue/concentration in tumor tissue: Liver” value [3] was 7, the “Ratio concentration in normal tissue/concentration in tumor tissue: Lung” value [3] was 1.7 and the “Ratio concentration in normal tissue/concentration in tumor tissue: Muscle” value [3] was 0.33. For the same molecule, the “Ratio concentration in normal tissue/concentration in tumor tissue: Pancreas” value [3, 10] was 4.3^###, the “Ratio concentration in normal tissue/concentration in tumor tissue: Skin” value [3] was “about 0.93” and the “Ratio concentration in normal tissue/concentration in tumor tissue: Skin” value ([3]; listed as PHOTOFRIN) was 0.93. The “Ratio concentration in normal tissue/concentration in tumor tissue: Spleen” value [3, 10] was 3.1^###, the “Ratio concentration in normal tissue/concentration in tumor tissue: Urinary Bladder” value [3, 10] was 5.9^### and the Absolute Tumor Levels [3] was 1.05 µg/g. The Recurrences ([7]; 117 patients treated for cure, follow-up to 189 months (mean 84 months)) was 10, the Adverse reactions ([7]; 117 patients with squamous cell carcinoma of the larynx) was “edema and erythema” and the “Destruction of high grade dysplasia” value ([8]; 100 patients) was “all patients treated”. The “Patients with complete ablation of Barrett's mucosa” value ([8]; 100 patients) was 43%, the “Patients with esophageal strictures” value ([8]; all patients treated) was 34% and the “Patients with complete ablation of Barrett's mucosa with PDT treatment only” value [8] was 8%. The “Patients with complete ablation who required thermal ablation of small residual islands” value [8] was 35% and the Effective dose ([5]; with light exposure (HPPH 665±5 nm)) was ≥ 2 mg/kg of body weight.
